What all share (format): in vivo, rat
Experiment [1] relates to oxaliplatin-induced mechanical allodynia. Put plainly: Example 5: mechanical allodynia (von Frey PWT) in oxaliplatin chemotherapy-induced peripheral neuropathy model. The conditions noted are these: Pregabalin 30 mg/kg p.o. each test day, tested 2 hr post dose. As to the method:
The aim of this study was to investigate the effect of a single intraplantar treatment with Nanoparticles from Example 1 (NP1B) at the dose of 11 g/L, Nanoparticles from Example 2 (NP2B) at 53 g/L, Nanoparticles from Example 3 (NP20B) at 57 g/L, and Nanoparticles from Example 4 (NP20A) at 59 g/L, each in 20 μL of injection volume, on the mechanical allodynia (as assessed using von Frey) that occurs following systemic administration of oxaliplatin in the rat.
Experimental subjects: Seventy-two (72) adult male Sprague-Dawley rats were used for this study. […]
Static mechanical (tactile) allodynia evaluation: Measurement of paw withdrawal threshold (PWT) was achieved using calibrated (force; g) von-Frey monofilaments (Touch-Test Sensory Evaluator; Scientific Marketing Associates) applied to the plantar surface of the hind paw. Withdrawal threshold was determined by increasing and decreasing stimulus intensity and estimated using Dixon's up-down method. […]
Baseline readings for latency to withdrawal (sec) were assessed on three consecutive days (Day −3, Day −2 and Day −1). […]
Mechanical allodynia was subsequently re-assessed 2-3 times per week following injection, out to D26 post-oxaliplatin. […]

Experiment [2] has the same test system. Put plainly: Example 6: mechanical allodynia (von Frey PWT) in oxaliplatin CIPN model, dose effect, left (treated) vs right (vehicle) paw. The settings on record: Pregabalin 30 mg/kg p.o. each test day; both left and right paws. From the text: Animals were allowed to recover from transportation for at least one week before commencing experiments.
Data is presented as mean±SEM.

Experiment [3] relates to STZ-induced mechanical allodynia. Put plainly: Example 7: mechanical allodynia (von Frey PWT) in streptozotocin diabetes-induced peripheral neuropathy model. The settings on record: Pregabalin 30 mg/kg p.o. 2 hr prior to each Von Frey test. As to the method: The aim of the study is to investigate the effect of a single intraplantar treatment with Nanoparticles from Example 3 at the doses of 117 g/L in 20 μL of injection volume, 58 g/L in 20 μL of injection volume, and 18 g/L in 10 μL of injection volume on the mechanical allodynia (as assessed using von Frey) that occurs following systemic administration of Streptozocin in the rat.
Experimental subjects: Sixty-six (66) adult male Sprague-Dawley rats (180-210 g) were used for this study. […]
Confirmation of hyperglycaemia: On Day 7 (D7) one drop of tail vein blood was obtained by a needle prick on the conscious rats. The blood glucose levels were measured in one drop of blood using an Exactive Vital (MictoTech Medical) blood glucose monitor. […]
Static mechanical (tactile) allodynia: Measurement of withdrawal threshold was achieved using calibrated (force; g) von-Frey monofilaments (Touch-Test Sensory Evaluator; Scientific Marketing Associates) applied to the plantar surface of the hind paw. Withdrawal threshold was determined by increasing and decreasing stimulus intensity and estimated using Dixon's up-down method (Dixon, 1980; Chaplan et al., 1994). […]
Von Frey readings are taken at baseline (pre-STZ), at D9 and at D11 post-STZ (neuropathic/allodynia baseline) and 2 hours post dose on D14. Von-Frey readings are repeated twice per week up to 3 weeks post-STZ (1 week post nanoparticles dosing). […]

As to `CC(C)C[C@H](CN)CC(=O)O` [Pregabalin], the “PWT, allodynic response (positive control)” value in experiment [1] was “rescued the allodynic response and recovered the PWT to the healthy baseline levels”. Moreover, the “PWT levels compared to ‘Vehicle/Vehicle’ group (not neuropathic)” value in experiment [2] was “not significantly different from the ‘Vehicle/Vehicle’ group (not neuropathic) on any of the test days”. The “PWT levels compared to “STZ/Vehicle” group” value in experiment [3] is recorded as “significantly different from the “STZ/Vehicle” group on all days tested”.

Values taken from patent US20260102427A1, “COMPOSITIONS OF NANOPARTICLES FOR TREATMENT OF NEUROPATHIC PAIN” (NANOBIOTIX S.A., priority 2022, published 2026).
